# Laboratory results: US8540966B2, “Contrast agents endowed with high relaxivity” (Bracco Imaging S.p.A., priority 2004, dated 2013)
# Experiment: Relaxivity determination (r1p) at 20 MHz, 298K, pH 7
# Assay type: physicochemical
# Details: 298K, 20 MHz, pH 7; q=1 Gd complexes derived from the DTPA-monophosphonate backbone (Table 5)
# Description: As far as the relaxation enhancement property is concerned, a paramagnetic Gd(III) complex is characterized by its relaxivity (r1p) which represents the increase of the proton relaxation rate of an aqueous solution of the Gd(III) complex in comparison to the proton relaxation rate of neat water (R1°). The relaxivity is usually measured at 298K and 20 MHz (0.5 T).
# In order to best evaluate the relaxivity properties and the parameters affecting the relaxivity of the agents of the invention, some comparative tests have been performed. In a first experiment, the relaxivity of a number of Gd-based chelated compounds having different molecular weight, all derived from the following [Gd(DTPA-monophosphonate)]^3− basic backbone structure (r1p at 20 MHz and 298K: 6.1 mM^−1 s^−1) of formula
# Tested compounds include the Gd-complex of the chelating compounds 1b and 2b of the invention (hereinafter Gd-1b and Gd-2b) as well as a number of different derivatives of the aforementioned backbone moiety selected in order to cover a range of molecular weights of up to about 1800 Dalton. The relaxivity of all of the tested compounds were measured at 298K and 20 MHz and pH 7. The obtained values, listed in table 5 below (together with the structure of the compounds) have also been plotted against the MW of the complexes (see FIG. 1).
# A second experiment was performed to test the relaxivity of different compounds of the invention, marketed NSA, known LDA and other systems, all containing one coordinated water molecule (q=1). The data were registered at 298K and 20 MHz and pH=7, and plotted against their corresponding MW. Relaxivity data relating to LDA P760 and P792 (LDA contrast agents) are based on literature cited below.
# (§1) Conversely, the relaxivity improvement shown by the blood pool agent rapidly falls dawn over the same range of magnetic field strength. In addition to the above, please find below as per table 7, other relaxivity values, measured as above indicated, for some other representative compounds of the invention.
row,Molecule,R1p (relaxivity) [mM⁻¹ s⁻¹]
1,O=C(O)CN(CCN(CCN(CC(=O)O)[C@@H](Cc1ccccc1)C(=O)O)CP(=O)(O)O)[C@@H](Cc1ccccc1)C(=O)O [B 22606],7.7
2,O=C(O)CN(CCN(CCN(CC(=O)O)[C@@H](COCc1ccccc1)C(=O)O)CP(=O)(O)O)[C@@H](COCc1ccccc1)C(=O)O [B 22666],7.9
3,O=C(O)CN(CCN(CCN(CC(=O)O)[C@@H](Cc1c[nH]c2ccccc12)C(=O)O)CP(=O)(O)O)C(Cc1c[nH]c2ccccc12)C(=O)O (stereo partly drawn) [B 22836],7.9

# Same assay, conditions: 298K, 20 MHz, pH=7; q=1 complexes (Table 6)
row,Molecule,R1p (relaxivity) [mM⁻¹ s⁻¹]
1,O=C(O)CN1CCN(CC(=O)O)CCN(C(COCc2ccccc2)C(=O)O)CCN(CC(=O)O)CC1 (stereo not drawn) [Compound B19106],5.5
2,O=C(O)CN1CCN(C(COCc2ccccc2)C(=O)O)CCN(CC(=O)O)CCN(C(COCc2ccccc2)C(=O)O)CC1 (stereo not drawn) [Compound B19236],6.5
3,O=C(O)CN1CCN(C(COCc2ccccc2)C(=O)O)CCN(C(COCc2ccccc2)C(=O)O)CCN(C(COCc2ccccc2)C(=O)O)CC1 (stereo not drawn) [Compound B19406],7.5
4,O=C(O)CN1CCN(CC(=O)O)CCN(CC(=O)O)CCN(CC(=O)O)CC1 [Gd-DOTA],4.7
5,O=C(O)CN(CCN(CC(=O)O)CC(=O)O)CCN(CC(=O)O)CC(=O)O [Gd-DTPA],4.7

# Same assay, conditions: measured as above indicated: 298K, 20 MHz (Table 7)
row,Molecule,R1p (relaxivity) [mM⁻¹ s⁻¹]
1,O=C(O)CCC(C(=O)O)N1CCN(Cc2cccc(C(=O)NCC(CNC(=O)C(O)C(O)C(O)C(O)CO)(CNC(=O)C(O)C(O)C(O)C(O)CO)CNC(=O)C(O)C(O)C(O)C(O)CO)c2)CCN(C(CCC(=O)O)C(=O)O)CCN(C(CCC(=O)O)C(=O)O)CC1 (stereo not drawn) [Gd-1d],24
2,O=C(CC[C@@H](C(=O)O)N1CCN([C@@H](CCC(=O)NC(COC2OC(CO)C(O)C(O)C2O)(COC2OC(CO)C(O)C(O)C2O)COC2OC(CO)C(O)C(O)C2O)C(=O)O)CCN([C@@H](CCC(=O)NC(COC2OC(CO)C(O)C(O)C2O)(COC2OC(CO)C(O)C(O)C2O)COC2OC(CO)C(O)C(O)C2O)C(=O)O)CCN([C@@H](CCC(=O)NC(COC2OC(CO)C(O)C(O)C2O)(COC2OC(CO)C(O)C(O)C2O)COC2OC(CO)C(O)C(O)C2O)C(=O)O)CC1)NC(COC1OC(CO)C(O)C(O)C1O)(COC1OC(CO)C(O)C(O)C1O)COC1OC(CO)C(O)C(O)C1O (stereo partly drawn) [Gd-7c],20.4
3,CC1(N(CC(=O)O)CC(=O)O)CN(C(CCC(=O)N(CCN(CCC(=O)NC(CO)(CO)CO)CCC(=O)NC(CO)(CO)CO)CCN(CCC(=O)NC(CO)(CO)CO)CCC(=O)NC(CO)(CO)CO)C(=O)O)CCN(C(CCC(=O)N(CCN(CCC(=O)NC(CO)(CO)CO)CCC(=O)NC(CO)(CO)CO)CCN(CCC(=O)NC(CO)(CO)CO)CCC(=O)NC(CO)(CO)CO)C(=O)O)C1 (stereo not drawn) [Gd-15a],16.7

# Experiment: 1/T1 NMRD profiles: relaxivity over a range of magnetic field strength
# Assay type: physicochemical
# Details: from 0.2 to 3 MHz; 25° C., 1 mM aqueous solution (FIG. 6)
# Description: As an example, the relaxivity profile of the gadolinium complex of the chelating ligand of the invention 2b (hereinafter referred to as Gd-2b), in the above magnetic field range, has been compared with that of a marketed NSA, i.e. Magnevist®, and that of a blood pool agent, i.e. the macromolecular adduct between Gd-DTPA(BOM)3 and BSA (Bovine Serum Albumin) (FIG. 6).
# The corresponding profile for the above blood pool agent is quite different.
# A further test was performed in which the relaxivity values r1p, shown by the compounds of the invention as measured at 20 MHz and 298K, were plotted against the molecular reorientational values τR of the same compounds. The stability of the relaxivity properties shown by the compounds of the invention was tested. In a first experiment, the 1/T1 NMRD profiles for some compounds of the invention were acquired over a range of magnetic field strengths ranging from 0.01 to 130 MHz. […]
# as §1
row,Molecule,relaxivity profile versus field strength
1,Gd-DTPA,quite stable though very low
